Tests used:
[1] = system: rifampicin-resistant strain of a Gram-negative Kosakonia sp. bacterium; test: Desiccation resistance (viability, CFU) of Kosakonia sp. cells mixed with protectant agents and dried in 96-well plates; format: cell-based; settings: after 5 days and 7 days of desiccation stress; protectants at 1% or 0.5% (whole broth and cell pellet undiluted or 2x dilution)
From the text: A rifampicin-resistant strain of a Gram-negative Kosakonia sp. bacterium was mixed with water (untreated control or “UTC”), trehalose, carboxymethylcellulose (“CMC”), methylcellulose (“MC”), extracellular polymeric substance from Parachlorella kessleri Accession No. NCMA 202103001 (“EPS”), sodium alginate (“Na-Alginate”), Parachlorella kessleri Accession No. NCMA 202103001 whole broth (“3001 Broth”), or Parachlorella kessleri Accession No. NCMA 202103001 cell pellet after centrifugation (“3001 Pellet”) in 96-well plates. Each of the protectant agents was added undiluted (i.e., at a 1× dilution) or at a 2× dilution (i.e., at […] to 1 part protectant) for whole broth and cell pellets or at a concentration of 1% (i.e., 1 g/100 mL) or 0.5% (i.e., 0.5 g/100 mL) for all other protectants. […]
The liquid medium in the plates was allowed to dry at room temperature inside a desiccation chamber for several days to create desiccation stress in the bacterial cell cultures. […] The bacterial cells were evaluated for survival and growth after 5 days of desiccation stress and after 7 days of desiccation stress.
The colony forming unit (CFU) data in these figures were generated by counting the number of colonies on each spot (see spots on representative plates shown in FIGS. 2A, 2B, and 2C) and using the following formula for quantifying viable cell density: […]

[2] = system: co-culture of Gram-negative Kosakonia pseudosacchari strain JM-387 and Pseudomonas aylmerense strain S1E40; test: Desiccation resistance (viability, CFU) of a bacterial co-culture mixed with protectant agents; format: cell-based; settings: after 3, 5 and 7 days of desiccation stress, protectants at 1% (whole broth and cell pellet undiluted)

OC[C@H]1O[C@H](O[C@H]2O[C@H](CO)[C@@H](O)[C@H](O)[C@H]2O)[C@H](O)[C@@H](O)[C@@H]1O [Trehalose]
protective effect on the Kosakonia sp. cells (viability after desiccation stress) [1]: demonstrated a protective effect | protective effect on the Gram-negative bacterial cells (viability after desiccation stress) [2]: demonstrated a protective effect

— patent US20230042599A1, “CELLULOSIC COMPOUNDS AND AGRICULTURAL USES THEREOF” (HELIAE DEVELOPMENT, LLC, priority 2021, published 2023)
